Where two headings read alike, the source gives them in different places. A value given as a limit tells only on which side of the number the result lay.

One may read the EC50 as the concentration needed to bring the measured effect to its halfway point. Usually IC50 stands for the midpoint of a concentration-inhibition curve. By melting point is commonly meant the temperature of the solid-liquid transition.

In data set [1] the test system is Influenza virus strain A/PR/8/34 (H1N1). Put plainly: microbe, parasite or virus in culture. The conditions noted are these: unidentified influenza virus, MDCK, read-out: EC50 (PRA).
Data set [2] addresses T1, PA–PB1 interaction (6His-PA(239–716) / GST-PB1(1–25)) (Influenza A virus, UniProt P03433). The data set can be described thus: biochemical. The data set is classed as binding.
The next data set can be described thus: in vitro. The conditions noted are these: dog.
In data set [3] the test system is Influenza virus strain A/PR/8/34 (H1N1).
Data set [4] relates to MDCK cells. Put plainly: Cytotoxicity assay (MTT) in MDCK cells. The conditions noted are these: read-out: CC50 (MDCK Cells); MTT assay, MDCK cells, 48 h; 50% decrease in cell viability. Background: Formazan colour is commonly taken as a measure of viable cells.
Procedure: (§1) The cytotoxicity of compounds was tested in MDCK cells using the 3-(4,5-dimethylthiazol-2-yl)-2,5-diphenyl tetrazolium bromide (MTT) method, as previously reported [32]. Briefly, MDCK cells (seeded at a density of 2 × 10^4 per well) were grown in 96-well plates for 24 h and then treated with serial dilutions of test compounds, or DMSO as a control, in DMEM supplemented with 10% FBS. After incubation at 37 °C for 48 h, 5 mg/mL of MTT (Sigma, Tokyo, Japan) in PBS was added into each well and incubated at 37 °C for a further 4 h. Successively, a solubilization solution was added to lyse the cells and incubated overnight at 37 °C. Finally, optical density was read at the wavelength of 570 nm on a microtiter plate reader (MultiSkan FC, ThermoFisher Scientific).
For data set [5], the system named is MDCK cells.
Procedure: as §1
For data set [6], the target named is T1, PA–PB1 interaction (6His-PA(239–716) / GST-PB1(1–25)). The conditions noted are these: read-out: IC50 (ELISA PA–PB1), cited from earlier work. In general terms: In an ELISA, binding on a coated surface is turned into a signal by an enzyme label.
The next data set has as its system HEK 293T cells. The conditions noted are these: cited from earlier work.
Data set [7] deals with MDCK cells. The conditions noted are these: cited from earlier work.
In data set [8] the test system is Influenza virus strain A/PR/8/34 (H1N1). The conditions noted are these: plaque reduction assay in MDCK cells; cited from earlier work. (In general: Plaque reduction counts the foci of infection that form in a cell layer.)
A short description of data set [9]: Cytotoxicity assay (MTT) in MDCK cells.
Procedure: as §1

Procedure for in vitro: as §1

The compound `Cc1cccc(NC(=O)CSc2nc(-c3ccccc3)cc(-c3ccc(F)cc3)n2)c1` [Compound 2d, 2-{[4-(4-Fluorophenyl)-6-phenylpyrimidin-2-yl]thio}-N-(m-tolyl)acetamide] gave a melting point of 186 to 190 °C. The concentration giving a half-maximal response (EC50) in data set [1] is 2.8 ± 0.6 µM. The same compound yielded a half-inhibitory concentration (IC50) in data set [2] of 90.1 ± 30.2 µM. Besides, the CC50 at 48 h in “in vitro” was greater than 250 µM. In data set [3], the “antiviral activity relative to RBV” value is “almost five-fold more active than RBV”.

With `CCC(CC)O[C@@H]1C=C(C(=O)O)C[C@H](N)[C@H]1NC(C)=O` [OSC, oseltamivir carboxylate], the CC50 in the data set with MDCK cells [4] is greater than 250 µM. The EC50 in [3] (read-out: EC50 (PRA)) turned out to be 0.04 ± 0.01 µM.

Regarding `Cc1cccc(NC(=O)CSc2nc(Sc3ccccc3)cc(-c3ccc(Cl)cc3)n2)c1` [Compound 2j, 2-{[4-(4-Chlorophenyl)-6-(phenylthio)pyrimidin-2-yl]thio}-N-(m-tolyl)acetamide], the melting point is 150 to 154 °C. For the same compound, the EC50 in data set [1] is 32.9 ± 4.1 µM. In the data set with MDCK cells [5], the “cytotoxicity (in words)” value is “high cytotoxicity”. For the same compound, in data set [2], the IC50 was greater than 200 µM. In addition, the CC50 at 48 h in “in vitro” came to 16 ± 4.2 µM.

For the compound `Cc1cccc(NC(=O)CSc2nc(-c3ccccc3)cc(-c3ccccc3)n2)c1` [Compound 1d], the IC50 in [6] (ELISA PA–PB1 interaction) was 165 ± 18 µM. Also, the figures for the CC50 with HEK 293T cells and in the data set with MDCK cells [7] were 22.3 µM and 10.1 ± 1.7 µM, respectively. Further, in [8], the concentration giving a half-maximal response (EC50) was 3.5 ± 0.5 µM.

`Cc1cccc(NC(=O)CSc2nc(C(=O)Nc3ccccc3)cc(-c3ccccc3)n2)c1` [Compound 2l, 2-{[2-oxo-2-(m-tolylamino)ethyl]thio}-N,6-diphenylpyrimidine-4-carboxamide] gave a melting point of 181 to 182 °C. In addition, the EC50 in data set [1] turned out to be 13 ± 5.5 µM. For the same compound, the “cytotoxicity (in words)” value in the data set with MDCK cells [5] is “high cytotoxicity”. Further, the IC50 in data set [2] worked out at 125 ± 37 µM. Also, the CC50 at 48 h in the data set “in vitro” worked out at 46.3 ± 10.4 µM.

Regarding `NC(=O)c1ncn(C2O[C@H](CO)[C@@H](O)[C@H]2O)n1` (stereo partly drawn) [RBV, 1-D-ribofuranosyl-1,2,4-triazole-3-carboxamide, reference compound], the EC50 in data set [1] came to 12.8 ± 3.2 µM. Besides, the CC50 at 48 h in data set [9] (dog, MDCK cells) is greater than 250 µM.

Consider `Cc1cccc(NC(=O)CSc2nc(-c3ccc(C(F)(F)F)cc3)cc(-c3ccc(C(F)(F)F)cc3)n2)c1` [Compound 1c], for which the half-maximal inhibitory concentration (IC50) in data set [6] (ELISA PA–PB1 interaction) was greater than 200 µM. In addition, the CC50 with HEK 293T cells and in the data set on MDCK cells [7] was greater than 250 µM in each case. For the same compound, the EC50 in data set [8] is 26.5 ± 4.3 µM.

Take `CCC(C)C(NC(=O)CSc1nc(-c2ccccc2)cc(-c2ccc(C)cc2)c1C#N)C(=O)OC` (centres unmarked) [Compound 1b]: in data set [6] (ELISA-based PA–PB1 interaction assay), the concentration for half-maximal inhibition (IC50) is 36 ± 3 µM. The values for the CC50 in the data set on HEK 293T cells and in the data set on MDCK cells [7] were 229 µM and greater than 250 µM, respectively. For the same compound, the EC50 in data set [8] was 39 ± 2 µM.

In [9], `CSCC[C@H](N)C(=O)N[C@@H](CC(=O)O)C(=O)N[C@H](C(=O)N[C@@H](CC(N)=O)C(=O)N1CCC[C@H]1C(=O)N[C@H](C(=O)N[C@@H](CC(C)C)C(=O)N[C@@H](CC(C)C)C(=O)N[C@@H](Cc1ccccc1)C(=O)N[C@@H](CC(C)C)C(=O)N[C@@H](CCCCN)C(=O)N[C@H](C(=O)N1CCC[C@H]1C(=O)N[C@@H](C)C(=O)N[C@@H](CCC(N)=O)C(=O)N[C@@H](Cc1ccc(O)cc1)C(=O)NCC(=O)N[C@@H](CCCNC(=N)N)C(=O)N[C@@H](CCCCN)C(=O)N[C@@H](CCCCN)C(=O)N[C@@H](CCCNC(=N)N)C(=O)N[C@@H](CCCNC(=N)N)C(=O)N[C@@H](CCC(N)=O)C(=O)N[C@@H](CCCNC(=N)N)C(=O)N[C@@H](CCCNC(=N)N)C(=O)N[C@@H](CCCNC(=N)N)C(=O)N1CCC[C@H]1C(=O)N1CCC[C@H]1C(=O)O)C(C)C)[C@@H](C)O)C(C)C` [PB1(1–15)-Tat peptide] returned a CC50 greater than 250 µM. The compound also came in with a half-maximal effective concentration (EC50) in [3] (Influenza virus strain A/PR/8/34, 24 h) of 49.7 ± 5.1 µM.

In turn, `Cc1cccc(NC(=O)CSc2nc(Sc3ccccc3)cc(-c3ccc(F)cc3)n2)c1` [Compound 2k] gave a melting point of 146 to 147 °C. In [1], the EC50 is 16.4 ± 1.9 µM. The “cytotoxicity (in words)” value with MDCK cells [5] is recorded as “high cytotoxicity”. Moreover, the concentration for half-maximal inhibition (IC50) in data set [2] worked out at 159 ± 29 µM. This compound also returned a CC50 at 48 h in “in vitro” of 48.2 ± 2.5 µM.

(Values after PMC11279468, “Exploring a New Generation of Pyrimidine and Pyridine Derivatives as Anti-Influenza Agents Targeting the Polymerase PA–PB1 Subunits Interaction” (Pharmaceutics, 2024).)
